Data published in patent US10517842B2, “Methods of modulating miRNA levels and compositions for use in the same” (Los Angeles Biomedical Research Institute at Harbor-UCLA …, priority 2017, dated 2019).

Legend:
NF-kB = NF-kB luciferase reporter assay in LSMC; assay type: cell-based, human; settings: Tranilast 200 μM, 48 hrs, vs DMSO set as 1
Procedure: The ratio of Firefly:Renilla was determined after treatment of Tranilast (200 μM) for 48 hrs and reported as relative luciferase activity as compared to DMSO which was independently set as 1. FIG. 13B: Graphical depiction of the NF-Kb (p65) binding elements in the miR-200c promoter. […] The results are presented as mean±SEM of at least three independent experiments using LSMC isolated from 3 patients.

[1] = system: leiomyoma smooth muscle cells (LSMC); experiment: Cell proliferation assay (MTT); assay type: cell-based, human; settings: Tranilast 100 to 400 μM, 48 hrs, dose-dependent, p<0.05
Excerpt: Leiomyomas and matched myometrium (N=12) were collected from patients scheduled to undergo hysterectomy at Harbor-UCLA Medical Center with prior approval from Institutional Review Board (#036247). The tissues were either snap frozen and stored in liquid nitrogen for further analysis, or used for isolation of LSMC as previously described (Chuang et al., “miR-200c is aberrantly expressed in leiomyomas in an ethnic-dependent manner and targets ZEBs, VEGFA, TIMP2, and FBLN5,” Endocrine-related cancer (2012)19:541-56; Chuang et al., “miR-93/106b and their host gene, MCM7, are differentially expressed in leiomyomas and functionally target F3 and IL-8. Molecular endocrinology,” (2012) 26:1028-42). Briefly, LSMC were cultured in DMEM supplemented with 10% fetal bovine serum until reaching confluence with a change of media every 2-3 days. […]
LSMC were seeded at 1000 cells/well in 96-well plates and cultured for 48 hrs. […] The rate of cell proliferation was determined using the MTT assay and cells were photographed as previously described (Chuang & Khorram, “Mechanisms underlying aberrant expression of miR-29c in uterine leiomyoma,” Fertility and sterility (2016)105:236-45.e1; Chuang et al., “The Regulatory Function of miR-200c on Inflammatory and Cell-Cycle Associated Genes in SK-LMS-1, A Leiomyosarcoma Cell Line,” Reproductive sciences (2015) 22:563-71). […]

3′UTR of CDK2 = experiment: 3′UTR luciferase reporter assay in LSMC; assay type: cell-based, human; settings: Tranilast 200 μM vs DMSO set as 1, 48 hrs before and 48 hrs after transfection, LSMC; P<0.05
3′UTR of COL3A1 = experiment: 3′UTR luciferase reporter assay in LSMC; assay type: cell-based, human; settings: Tranilast 200 μM vs DMSO set as 1, 48 hrs before and 48 hrs after transfection, LSMC; P<0.05
Procedure: LSMC were seeded at 3.5×10^4 cells/well in 6-well plates and at sub-confluence were treated with Tranilast (200 μM) or DMSO as control for 48 hrs. Tranilast and DMSO-treated cells were then transfected with luciferase reporter plasmids (1 μg/well) containing 3′ UTR sequences for COL3A1 or CDK2 (GeneCopoeia, Inc., Rockville, Md.) using PureFection transfection reagent (System Biosciences, Inc., Palo Alto, Calif.). After 48 hrs of transfection Firefly and Renilla luciferase activities were measured using the Dual-Luciferase Reporter Assay System (Promega). Firefly luciferase activity was normalized to Renilla luciferase activity. The level of induction was reported as mean±SEM of three experiments and compared with a ratio in cells treated with DMSO independently set as 1.
(§1) FIG. 10A: The relative luciferase activity in LSMC treated with Tranilast (200 μM) or DMSO as control for 48 hrs prior to transfection with Renilla and Firefly luciferase reporter plasmids carrying a 3′UTR fragment of COL3A1, CDK2 or IL8 and incubated with Tranilast (200 μM) or DMSO containing medium after transfection for another 48 hrs. The relative luciferase activity is presented as the ratio of Firefly:Renilla as compared to DMSO which was independently set as 1. The results are presented as mean±SEM of at least three sets of independent experiments using LSMC isolated from 3 patients. FIG. 10B: Protein expression of COL3A1 and CDK2 was determined after transfection of anti-miR scrambled oligonucleotides (aNC) or anti-miR-29c oligonucleotides (a29c) in LSMC for 72 hrs with DMSO or Tranilast (200 μM) treatment for the last 48 hrs. GAPDH was used as loading control. The result is one representative of at least three sets of independent experiments using LSMC isolated from 3 patients. FIG. 10C: The bar graph presented the relative band densities as mean±SEM of at least three independent experiments. Inhibition of protein expression by Tranilast treatment was calculated relative to changes in corresponding DMSO controls in cells transfected with aNC or anti-miR-29c.

[2] = system: 3′UTR of COL3A1 in lung cancer cell line A549; experiment: 3′UTR luciferase reporter assay in A549; assay type: cell-based; settings: Tranilast
3′UTR fragment of IL8 = experiment: 3′UTR luciferase reporter assay in LSMC; assay type: cell-based, human; settings: Tranilast 200 μM vs DMSO
Procedure: as §1

COc1ccc(C=CC(=O)Nc2ccccc2C(=O)O)cc1OC [Tranilast, 2-[[3-(3,4-dimethoxyphenyl)-1-oxo-2-propenyl]amino]benzoic acid]
NF-kB signaling (NF-kB luciferase reporter activity) (NF-kB): Blockade
rate of LSMC cell proliferation [1]: significantly inhibited
3′UTR activity of CDK2 (relative luciferase activity, Firefly:Renilla) (3′UTR of CDK2): suppressed
3′UTR activity of COL3A1 (relative luciferase activity, Firefly:Renilla) (3′UTR of COL3A1): suppressed
activity of luciferase reporter containing 3′UTR of COL3A1 [2]: Inhibits
expression of IL8 (heading to FIG. 10A, 3′UTR reporter) (3′UTR fragment of IL8): Down-regulated
